Laboratory results reported in the supplement of paper PMC10307832.

Key:
Assay in all cases: relative viability (nuclei count vs DMSO), 5 days (fraction); higher = more cells survive
TPCA-1 + Tozasertib = compound: C1=CC(=CC=C1C2=CC(=C(S2)NC(=O)N)C(=O)N)F [TPCA-1] + Cc1cc(Nc2cc(N3CCN(C)CC3)nc(Sc3ccc(NC(=O)C4CC4)cc3)n2)n[nH]1 [Tozasertib] (partner 0.1 µM)
Method in brief: (§1)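 Relative viability was taken as the ratio of nuclei in treated wells to nuclei in vehicle wells. Lung cancer cell lines in 1536-well plates received compounds by pin tool one day after seeding, either one drug alone or a fixed anchor-drug dose plus five library-drug doses (not always all listed) in √10 steps. Nuclei were counted on 4× images after 5 days of treatment, and values are medians of duplicate plates.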

[1] = compound: C[C@]12O[C@H](C[C@]1(O)CO)n1c3ccccc3c3c4c(c5c6ccccc6n2c5c31)CNC4=O [Lestaurtinib] + CC(=O)c1c(C)c2cnc(Nc3ccc(N4CCNCC4)cn3)nc2n(C2CCCC2)c1=O [Palbociclib] (partner 0.5 µM)
Method in brief: as §1

Lestaurtinib + Alpelisib = compound: C[C@]12O[C@H](C[C@]1(O)CO)n1c3ccccc3c3c4c(c5c6ccccc6n2c5c31)CNC4=O [Lestaurtinib] + Cc1nc(NC(=O)N2CCC[C@H]2C(N)=O)sc1-c1ccnc(C(C)(C)C(F)(F)F)c1 [Alpelisib] (partner 2 µM)
Method in brief: as §1

[2] = compound: C[C@]12O[C@H](C[C@]1(O)CO)n1c3ccccc3c3c4c(c5c6ccccc6n2c5c31)CNC4=O [Lestaurtinib] + Nc1ncn([C@H]2C[C@H](O)[C@@H](CO)O2)c(=O)n1 [Decitabine] (partner 2 µM)
Method in brief: as §1

Cell Line	relative viability (TPCA-1 + Tozasertib; first compound 0.04 µM)	relative viability (TPCA-1 + Tozasertib; first compound 0.1265 µM)	relative viability (TPCA-1 + Tozasertib; first compound 0.4 µM)	relative viability (TPCA-1 + Tozasertib; first compound 1.265 µM)	relative viability (TPCA-1 + Tozasertib; first compound 4 µM)	relative viability ([1]; first compound 0.005 µM)	relative viability ([1]; first compound 0.01581 µM)	relative viability ([1]; first compound 0.05 µM)	relative viability ([1]; first compound 0.1581 µM)	relative viability ([1]; first compound 0.5 µM)	relative viability (Lestaurtinib + Alpelisib; first compound 0.005 µM)	relative viability (Lestaurtinib + Alpelisib; first compound 0.01581 µM)	relative viability (Lestaurtinib + Alpelisib; first compound 0.05 µM)	relative viability (Lestaurtinib + Alpelisib; first compound 0.1581 µM)	relative viability (Lestaurtinib + Alpelisib; first compound 0.5 µM)	relative viability ([2]; first compound 0.005 µM)	relative viability ([2]; first compound 0.01581 µM)	relative viability ([2]; first compound 0.05 µM)	relative viability ([2]; first compound 0.1581 µM)	relative viability ([2]; first compound 0.5 µM)
PC-3 [JPC-3]	0.869	0.874	0.892	0.848	0.545	0.531	0.611	0.557	0.575	0.544	1.03	1.1	0.985	0.913	0.65	0.814	0.829	0.915	0.816	0.733
H3255	0.612	0.6	0.623	0.58	1.03	0.301	0.349	0.324	0.337	0.249	0.686	0.739	0.541	0.385	0.296	0.792	0.565	0.562	0.512	0.366
EMC-BAC-2	0.251	0.306	0.302	0.498	0.25	0.505	0.51	0.456	0.353	0.305	0.786	0.76	0.541	0.398	0.216	0.955	1.04	1.01	0.659	0.418
NCI-H650	0.707	0.708	0.734	0.546	0.256	0.315	0.323	0.249	0.236	0.229	1.24	1.04	0.748	0.49	0.429	0.332	0.362	0.353	0.335	0.326
SK-MES-1	0.866	0.82	0.933	0.728	0.24	0.329	0.324	0.266	0.337	0.228	0.862	0.337	0.332	0.302	0.229	0.36	0.441	0.321	0.282	0.142
NCI-H1355	0.595	0.574	0.597	0.461	0.254	0.455	0.403	0.332	0.273	0.254	0.849	0.885	0.682	0.392	0.303	0.389	0.349	0.329	0.311	0.344
NCI-H838	0.257	0.232	0.249	0.217	0.223	0.209	0.204	0.196	0.194	0.147	1.06	1.05	0.9	0.576	0.183	0.508	0.559	0.501	0.399	0.161
LK-2	0.167	0.176	0.187	0.172	0.16	0.705	0.833	0.756	0.53	0.307	1.37	0.97	1.01	0.647	0.365	0.281	0.462	0.239	0.224	0.145
NCI-H322M	0.523	0.464	0.462	0.416	0.303	0.473	0.497	–	0.515	0.519	0.853	0.789	0.508	0.325	0.405	0.755	0.784	–	0.647	0.756
NCI-H661	0.376	0.349	0.366	0.345	0.339	0.423	0.413	0.445	0.467	0.317	0.618	0.953	0.495	0.477	0.406	0.552	0.59	0.52	0.502	0.33
NCI-H1395	0.906	0.69	0.766	0.657	0.61	0.646	0.617	0.547	0.573	0.477	1.15	1.14	0.795	0.813	0.483	0.778	0.765	0.774	0.684	0.453
NCI-H520	0.445	0.395	0.448	0.498	0.319	0.262	0.234	0.201	0.171	0.158	1.05	0.993	0.764	0.481	0.274	0.62	0.59	0.502	0.327	0.247
NCI-H441	0.946	0.632	0.506	0.379	0.28	0.192	0.238	0.225	0.199	0.207	0.584	0.687	0.416	0.421	0.289	0.255	0.124	0.233	0.247	0.253
